One block for each molecule: values may come before it. Peptide text beside a SMILES is read from it. * marks the point of attachment. Cbz = O=C(OCc1ccccc1)*; NHOH = ON*
Columns and labels:
Assay type in all cases: biochemical
ADAM protein = molecular target: T1, ADAM protein (Homo sapiens, UniProt Q9UKQ2); experiment: Inhibition of the protease activity of the ADAM protein by test compounds; conditions: Nma-Pro-Lys-Pro-Leu-Ala-Nva-Trp-Lys(DNP)-NH2 substrate, 37° C., 2 hours; read-out: IC50 value (concentration of a test compound which 50% inhibits the protease activity)
T1 construct: made in house; host or cells: Escherichia coli BL21 (DE3)
T1 sequence (Q9UKQ2 199-495): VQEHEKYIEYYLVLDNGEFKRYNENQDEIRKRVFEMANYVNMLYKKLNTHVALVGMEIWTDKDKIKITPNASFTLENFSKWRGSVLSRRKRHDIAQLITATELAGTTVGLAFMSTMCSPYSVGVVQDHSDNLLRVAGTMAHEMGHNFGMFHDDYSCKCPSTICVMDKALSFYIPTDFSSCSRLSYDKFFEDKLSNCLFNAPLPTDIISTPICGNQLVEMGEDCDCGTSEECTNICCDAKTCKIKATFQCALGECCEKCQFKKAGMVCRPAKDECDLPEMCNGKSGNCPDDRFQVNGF
Protocol: (§1) An enzymatic reaction was initiated by adding 75 μl of a buffer (83.3 mM Tris-HCl, pH 7.5, 16.7 mM NaCl, 1.67 mM CaCl2, 16.7 μM CoCl2, and 0.067% BSA) to a solution (25 μl) of the ADAM protein obtained according to the same manner as that of Example 3, and adding 25 μl of a solution of a substrate (50 μM Nma-Pro-Lys-Pro-Leu-Ala-Nva-Trp-Lys(DNP)-NH2, 0.05% BSA, and 5% DMSO). After a temperature was held at 37° C. for 2 hours, 100 μl of a 0.5M acetate buffer (pH 3.0) was added to stop the enzymatic reaction. The fluorescent intensity in the case of addition of no an enzyme solution [fluorescent intensity was measured at an excitation wavelength of 340 nm and a measuring wavelength of 450 nm using a fluorescent platereader (Corona MTP-32)] was 10, while the fluorescent intensity in the case of addition of the enzyme solution was 180.
10 μl of a test compound adjusted to the predetermined concentration (dissolved in 50% DMSO) was added to the above activity measuring system. […] From this, it was considered that search on a substance which regulates (inhibits or promotes) the protease activity of the present ADAM protein can be conducted using the present assay system.

[1] = molecular target: T2, MOCAc-Arg-Pro-Lys-Pro-Tyr-Ala-Nva-Trp-Met-Lys(DNP)-NH2 (Homo sapiens, UniProt Q9UKQ2); experiment: Detection of the protease activity of recombinant ADAM protein (fluorogenic MOCAc peptide substrate); conditions: 37° C. for 22 hour; excitation 328 nm, 393 nm; 10 μM substrate; intensity 2 when no protein added
T2 construct: made in house; host or cells: Escherichia coli BL21 (DE3)
T2 sequence (Q9UKQ2 199-495): T1 sequence (Q9UKQ2 199-495)
Protocol: 30 μL of a buffer [250 mM Tris-hydrochloric acid (pH7.5), 5 mM calcium chloride, and 10 μM zinc chloride] and 20 μL of the recombinant ADAM protein (0.8 mg/mL) obtained in Example 3 were added to a 96-well plate (Fluoro B plate, manufactured by Dainihonseiyaku). After preincuvation at 37° C. for 10 minutes, an enzymatic reaction was initiated by adding 100 μL of a 10 μM substrate [MOCAc-Arg-Pro-Lys-Pro-Tyr-Ala-Nva-Trp -Met-Lys(DNP)-NH2, manufactured by Peptide Laboratory]. After the reaction at 37° C. for 22 hour, the fluorescent intensity in the reaction solution was measured at an excitation wave length of 328 nm and […] wave length of 393 nm using a microplatereader (manufactured by Applied Biosystems). The fluorescent intensity was 2 when no recombinant ADAM protein was added, while the fluorescent intensity of 70 was shown when the protein was added. From these, it was made clear that the present ADAM protein had the protease activity. It is considered that search of a substance which regulates (inhibits and promotes) the protease activity of the present ADAM protein is possible using this assay.

[2] = molecular target: T3, Nma-Pro-Lys-Pro-Leu-Ala-Nva-Trp-Lys(DNP)-NH2 (Homo sapiens, UniProt Q9UKQ2); experiment: Protease activity of ADAM protein with Nma peptide substrate; conditions: 37° C. for 2 hours; excitation 340 nm, measuring 450 nm; intensity 10 without enzyme solution
T3 construct: made in house; host or cells: Escherichia coli BL21 (DE3)
T3 sequence (Q9UKQ2 199-495): T1 sequence (Q9UKQ2 199-495)
Protocol: as §1

IC50 (ADAM protein): ~100 µM
Molecule: CC(C)C[C@H](NC(=O)[C@@H]1CCCN1C(=O)OCc1ccccc1)C(=O)NCC(=O)NO [N-CBZ-Pro-Leu-Gly-hydroxamate] (Cbz-Pro-Leu-Gly-{NHOH})

IC50 (ADAM protein): 600 µM
Molecule: CCCCC[C@H](CC(=O)NO)C(=O)N[C@H](C(=O)N1CCC[C@H]1CO)C(C)C [actinonin]

fluorescent intensity [1]: 70 | fluorescent intensity [2]: 180
B1: recombinant ADAM protein: about 35 kDa His-tagged metalloprotease and disintegrin region of the novel human ADAM protein, expressed in Escherichia coli from pMDH (protein)
chain: T1 sequence (Q9UKQ2 199-495)
modifications: left off: small tags and cut ends
notes: about 35 kDa His-tagged metalloprotease and disintegrin region of the novel human ADAM protein, expressed in Escherichia coli from pMDH
